Measured values: US12691113B2 (AstraZeneca AB, priority 2019, dated 2026)
“Also recorded” adds a separate entry of the source.

Legend:
[1] = tested on: OCI-LY10 cells; assay: Western blot analysis of phospho-proteins; type: cell-based, human; details: 2 or 24 hours; for phosphorylation of AKTS473: 100 nM acalabrutinib or both
Text: (§1) Cells were then lysed in SDS lysis buffer, centrifuged and protein concentrations estimated. Samples were loaded onto Bis-Tris Novex gels, transferred onto nitrocellulose membranes and probed for phospho-proteins of interest.

[2] = tested on: TMD8 cells; assay: Western blot analysis of phospho-proteins; type: cell-based, human; details: 2 or 24 hours; for phosphorylation of AKTS473: 100 nM acalabrutinib or both
Text: as §1

[3] = Plasma pharmacokinetics in the TMD8 xenograft efficacy study; type: in vivo, mouse; details: TMD8 xenograft mice; oral; day 20; 1, 2, 4 and 8-hour time points
Experimental: (§2) TMD8 human ABC-DLBCL tumor cells (5×10^6/mouse) were implanted subcutaneously in female CB.17 SCID mice. […] Tumor length and width was measured by caliper and tumor volume was calculated using the formula (length×width^2)*π/6.

[4] = tested on: WSU-DLCL2; assay: Cell viability assay (Cell Titer Glo, 72 hours); type: cell-based; details: Homo sapiens, WSUDLCL2, WSU-DLCL2, DLBCL GCB subtype, single agent
Experimental: (§3) In addition, the study further explored the mechanism of action of the combination of acalabrutinib and capivasertib using western blot analysis.
(§4) Cell viability was measured using Cell Titer Glo reagent and readouts were taken using a Tecan plate reader with a 100 ms integration time. Data analysis was carried out using GeneData software version 15. A growth inhibition value less than 1 μM (GI50<1 μM) indicates sensitivity.

[5] = tested on: OCI-LY19; assay: Cell viability assay (Cell Titer Glo, 72 hours); type: cell-based; details: Homo sapiens, OCI-LY19, DLBCL GCB subtype, single agent
Experimental: as §3, §4

[6] = tested on: U2932; assay: Cell viability assay (Cell Titer Glo, 72 hours); type: cell-based; details: Homo sapiens, U2932, DLBCL ABC subtype, single agent
Experimental: as §3, §4

[7] = tested on: SuDHL6; assay: Cell viability assay (Cell Titer Glo, 72 hours); type: cell-based; details: Homo sapiens, SU-DHL-6, SuDHL6, DLBCL GCB subtype, single agent
Experimental: as §3, §4

[8] = tested on: OCI-LY3; assay: Cell viability assay (Cell Titer Glo, 72 hours); type: cell-based; details: Homo sapiens, OCI-LY3, DLBCL ABC subtype, single agent
Experimental: as §3, §4

[9] = tested on: WILL1; assay: Cell viability assay (Cell Titer Glo, 72 hours); type: cell-based; details: WILL-1, WILL1, DLBCL Int subtype, single agent
Experimental: as §3, §4

[10] = tested on: HLY1; assay: Cell viability assay (Cell Titer Glo, 72 hours); type: cell-based; details: Homo sapiens, HLY1, DLBCL ABC subtype, single agent
Experimental: as §3, §4

[11] = tested on: TMD8; assay: Cell viability assay (Cell Titer Glo, 72 hours); type: cell-based; details: Homo sapiens, TMD8, DLBCL ABC subtype, single agent
Experimental: as §3, §4

[12] = tested on: SuDHL4; assay: Cell viability assay (Cell Titer Glo, 72 hours); type: cell-based; details: Homo sapiens, SU-DHL-4, SuDHL4, DLBCL GCB subtype, single agent
Experimental: as §3, §4

[13] = tested on: OCI-LY10; assay: Cell viability assay (Cell Titer Glo, 72 hours); type: cell-based; details: Homo sapiens, OCI-LY10, DLBCL ABC subtype, single agent
Experimental: as §3, §4

[14] = tested on: Karpas-422; assay: Cell viability assay (Cell Titer Glo, 72 hours); type: cell-based; details: Homo sapiens, Karpas-422, DLBCL GCB subtype, single agent
Experimental: as §3, §4

[15] = tested on: OCI-Ly10 human ABC DLBCL xenograft; assay: In vivo efficacy in subcutaneous OCI-Ly10 human ABC-DLBCL xenograft model; parameters: species or system mouse; details: SCID mice, oral BID, acalabrutinib 20 mg/kg; for TGI (tumor growth inhibition): capivasertib 130 mg/kg 4 days on/3 days off, after 25 days of treatment; for MAX AVG BODY WEIGHT LOSS: capivasertib 130 mg/kg, 25-day study
Experimental: OCI-ly10 human ABC-DLBCL tumor cells (5×10^6/mouse) were implanted subcutaneously in female CB.17 SCID mice. […] Tumor length and width was measured by caliper and tumor volume was calculated using the formula (length×width^2)*π/6.

[16] = tested on: TMD8 human ABC DLBCL xenograft; assay: In vivo efficacy in subcutaneous TMD8 human ABC-DLBCL xenograft model; parameters: species or system mouse; details: SCID mice, oral BID, acalabrutinib 20 mg/kg; for TGI (tumor growth inhibition): capivasertib 130 mg/kg 4 days on/3 days off, after 24 days of treatment; for MAX AVG BODY WEIGHT LOSS: capivasertib 130 mg/kg, 24-day study
Experimental: as §2

Row | GI50 [5] [nM] | GI50 [7] [nM] | GI50 [8] [nM] | GI50 [12] [nM] | GI50 [13] [nM] | GI50 [14] [nM] | MAX AVG BODY WEIGHT LOSS [15] [%] | MAX AVG BODY WEIGHT LOSS [16] [%] | SMILES | phosphorylation of AKTS473 ([1]; 1 μM capivasertib) | phosphorylation of AKTS473 ([2]; 1 μM capivasertib) | GI50 [4] [nM] | GI50 [6] [nM] | GI50 [9] [nM] | GI50 [10] [nM] | GI50 [11] [nM] | TGI (tumor growth inhibition) [15] [%] | TGI (tumor growth inhibition) [16] [%] | further results
1 | > 3000 | > 3000 | > 3000 | > 3000 | 22 | > 3000 | 2 | 5 | CC#CC(=O)N1CCC[C@H]1c1nc(-c2ccc(C(=O)Nc3ccccn3)cc2)c2c(N)nccn12 [acalabrutinib, 4-{8-amino-3-[(2S)-1-(but-2-ynoyl)pyrrolidin-2-yl]imidazo[1,5-a]pyrazin-1-yl}-N-(pyridin-2-yl)benzamide] | decreased | decreased | > 3000 | > 3000 | > 3000 | > 3000 | 25 | 74 | 81 | phosphorylation of BTK ([1]; 100 nM acalabrutinib): decrease; phosphorylation of BTK ([2]; 100 nM acalabrutinib): decrease; steady-state drug exposure levels (unbound plasma concentrations), single agent versus combination [3]: similar; also recorded: comparable; TGI (tumor growth inhibition) ([15]; listed as Acalabrutinib): 74%; TGI (tumor growth inhibition) ([16]; listed as Acalabrutinib): 81%
2 | > 3000 | 360 | > 3000 | 710 | > 3000 | 200 | 3 | 2 | NC1(C(=O)N[C@@H](CCO)c2ccc(Cl)cc2)CCN(c2ncnc3[nH]ccc23)CC1 [capivasertib, (S)-4-amino-N-(1-(4-chlorophenyl)-3-hydroxypropyl)-1-(7H-pyrrolo[2,3-d]pyrimidin-4-yl)piperidine-4-carboxamide] | increased | increased | 60 | > 3000 | > 3000 | > 3000 | > 3000 | 0 | 0 | phosphorylation of the downstream substrates PRAS40, GSK3β, FOXO and S6 ([1]; 1 μM capivasertib): decreased; phosphorylation of the downstream substrates PRAS40, GSK3β, FOXO and S6 ([2]; 1 μM capivasertib): decreased; TGI (tumor growth inhibition) ([15]; listed as Capivasertib): 0%; TGI (tumor growth inhibition) ([16]; listed as Capivasertib): 0%
